Where a name gives a salt, the structure may show the parent alone.
test: in vitro; details: rat, gh3-tre-luc cells, AC50 (uM) modified / 1000

SMILES	CC50 at 24 h
CC(C)c1ccc2c(c1)CC[C@H]1[C@](C)(CN)CCC[C@]21C [Dehydroabietylamine acetate]	10.1 µM
C1CCC2=NCCCN2CC1 [1,8-Diazabicyclo[5.4.0]undec-7-ene]	> 90 µM
O=C(O)c1ccccc1S [2-Thiosalicylic acid]	> 50 µM
CN(C)CCCNCCC#N [3-{[3-(Dimethylamino)propyl]amino}propanenitrile]	> 90 µM
CC1=C(/C=C/C(C)=C/C=C/C(C)=C/C=O)C(C)(C)CCC1 [Retinal]	12.4 µM
CC(C)OC(=O)c1cc2c(OCC(O)CNC(C)(C)C)cccc2[nH]1 (stereo not drawn) [SDZ 21009]	36.9 µM
CC(C)C(=O)OC(=O)C(C)C [Isobutyric anhydride]	> 90 µM
Nc1c2c(nc3c1CCC3)CCCC2 [Ipidacrine hydrochloride hydrate]	> 50 µM
CCC(C)(C)OC(=O)N[C@@H](Cc1c[nH]c2ccccc12)C(=O)N[C@@H](CCSC)C(=O)N[C@@H](CC(=O)O)C(=O)N[C@@H](Cc1ccccc1)C(N)=O [Amogastrin]	> 50 µM
CCn1cc(C(=O)O)c(=O)c2cc(F)c(N3CCNC(C)C3)c(F)c21 (stereo not drawn) [Lomefloxacin hydrochloride]	> 50 µM
Cc1c(F)c(N2CCNC(C)C2)cc2c1c(=O)c(C(=O)O)cn2C1CC1 (stereo not drawn) [Grepafloxacin hydrochloride]	> 50 µM
CCCC(=O)CC [3-Hexanone]	> 90 µM
O=C(O)c1cccc(O)c1 [3-Hydroxybenzoic acid]	> 90 µM
CC1=C(O)C(=O)C(C)O1 (stereo not drawn) [4-Hydroxy-2,5-dimethyl-3(2H)furanone]	> 90 µM
Cc1c(C)n(Cc2ccccc2)c2ccc(C(=O)OCCN(C)C)cc12 [Indocate]	8.6 µM
O=C1O[C@H]2[C@H](O)[C@@H]1OC(O)[C@H]2O (stereo partly drawn) [Mannuronic acid lactone]	> 50 µM
CCC(=O)OCC(=O)[C@@]1(OC(=O)CC)[C@H](C)C[C@H]2[C@H]3[C@H]([C@@H](O)C[C@@]21C)[C@@]1(C)C=CC(=O)C=C1C[C@H]3Cl [Alclometasone dipropionate]	> 20 µM
CCCCCCCCCCCCCCCCCC[n+]1ccn(C)c1 [1-Methyl-3-octadecylimidazolium hexafluorophosphate]	9.82 µM
CN[C@H]1CC[C@@H](c2ccc(Cl)c(Cl)c2)c2ccc(S(N)(=O)=O)cc21 [UK-373911]	4.55 µM
CC1=C(O)C(=O)CO1 [4-Hydroxy-5-methyl-3-furanone]	> 90 µM
c1coc(Cn2cccc2)c1 [1-Furfurylpyrrole]	> 90 µM
O=c1cc(CO)occ1O [Kojic acid]	> 50 µM
CC(=O)Nc1cccc(N)c1 [3-Aminoacetanilide]	> 90 µM

SMILES	CC50 at 24 h
C=CN1CCCCCC1=O [1-Ethenylazepan-2-one]	> 90 µM
C=COCC1CCC(CO)CC1 (stereo not drawn) [{4-[(Ethenyloxy)methyl]cyclohexyl}methanol]	> 90 µM
CC(O)C(CO)C(C)O (stereo not drawn) [3-(Hydroxymethyl)pentane-2,4-diol]	> 90 µM
CCCC1([C@H](O)C/C=C/[C@H]2[C@H](O)CC(=O)[C@@H]2CCCCCCC(=O)OC)CCC1 [(R)-Butaprost]	32.9 µM
C=CC1CC2C=CC1C2 (stereo not drawn) [5-Vinyl-2-norbornene]	> 90 µM
O=c1[nH]c(=O)n([C@H]2C[C@H](O)[C@@H](CO)O2)cc1I [Idoxuridine]	> 20 µM
COc1ccc(O)c(C(C)(C)C)c1 [Butylated hydroxyanisole]	> 90 µM
C=C(C)C(N)=O [Methacrylamide]	> 90 µM
OCC1CCCO1 (stereo not drawn) [Tetrahydrofurfuryl alcohol]	> 90 µM
O=C(/C=C/c1ccccc1)OCc1ccccc1 [Benzyl cinnamate]	> 90 µM
CC(C)=CCC/C(C)=C\C#N [(2Z)-3,7-Dimethylocta-2,6-dienenitrile]	> 90 µM
CCCCn1cc[n+](C)c1C [1-Butyl-2,3-dimethylimidazolium chloride]	> 90 µM
Cc1ccc(S(=O)(=O)N=C=O)cc1 [p-Toluenesulphonyl isocyanate]	> 90 µM
Cl/C=C\C[N+]12CN3CN(CN(C3)C1)C2 [Chloroallyl methenamine chloride]	> 90 µM
CC(CCl)OP(=O)(OC(C)CCl)OC(C)CCl (stereo not drawn) [Tris(2-chloroisopropyl)phosphate]	> 90 µM
CCCCCCCCCCCCCCN(C)C [N,N-Dimethyltetradecylamine]	> 20 µM
Cc1ccc2c(c1)OCC(=O)CO2 [7-Methyl-2H-1,5-benzodioxepin-3(4H)-one]	> 90 µM
O=C(O)C(Cl)Cl [Dichloroacetic acid]	> 90 µM
ClCc1ccc(Cl)cc1Cl [2,4-Dichloro-1-(chloromethyl)benzene]	> 90 µM
Cc1cc(N)n(-c2ccccc2)n1 [3-Methyl-1-phenyl-1H-pyrazol-5-amine]	> 90 µM
Cc1ccc([N+](=O)[O-])cc1N [2-Methyl-5-nitroaniline]	> 90 µM
CCOC(=O)NCCOc1ccc(Oc2ccccc2)cc1 [Fenoxycarb]	> 90 µM
N#[N+]c1ccc2c(S(=O)(=O)[O-])cccc2c1O [1-Naphthalenesulfonic acid, 6-diazo-5,6-dihydro-5-oxo, sodium salt]	> 90 µM

SMILES	CC50 at 24 h
O=C(O)c1cccc([N+](=O)[O-])c1 [3-Nitrobenzoic acid]	> 90 µM
c1ccc2sc(SNC3CCCCC3)nc2c1 [N-Cyclohexyl-2-benzothiazolesulfenamide]	> 90 µM
CC(C)(C)OO [tert-Butyl hydroperoxide (70% Solution in Water)]	> 90 µM
O=C(O)CCCCCCCCCCC(=O)O [Dodecanedioic acid]	> 90 µM
CN(C(=O)C(Cl)Cl)c1ccc(OC(=O)c2ccco2)cc1 [Diloxanide furoate]	> 50 µM
CC(C)[C@@H](Nc1ccc(C(F)(F)F)cc1Cl)C(=O)OC(C#N)c1cccc(Oc2ccccc2)c1 (stereo partly drawn) [tau-Fluvalinate]	> 90 µM
COc1c(Cl)ccc(Cl)c1C(=O)O [Dicamba]	> 90 µM
CCOC(=O)COc1cc(-n2ncc(C(F)(F)F)c(C)c2=O)c(F)cc1Cl [Flufenpyr-ethyl]	> 90 µM
Brc1cc(-c2ccc(Br)c(Br)c2Br)cc(Br)c1Br [Polybrominated biphenyls (PBB)]	> 50 µM
Nc1ccc2cc3ccccc3cc2c1 [2-Aminoanthracene]	> 90 µM
CC[N+](C)(CC)CC [N,N-Diethyl-N-methylethanaminium chloride]	> 90 µM
O=C(O)CCNC(=O)c1ccccc1 [Betamipron]	> 50 µM
CC[C@H]1OC(=O)[C@H](C)C(=O)[C@H](C)[C@@H](O[C@@H]2O[C@H](C)C[C@H](N(C)C)[C@H]2O)[C@](C)(OC)C[C@@H](C)C(=O)[C@H](C)[C@H]2N(CCCCn3cnc(-c4cccnc4)c3)C(=O)O[C@]12C [Telithromycin]	> 50 µM
Cc1ccc(O)c(C)c1 [2,4-Dimethylphenol]	> 90 µM
Cc1c(N(C)C)c(=O)n(-c2ccccc2)n1C [4-Dimethylaminoantipyrine]	> 50 µM
Cc1ncc([N+](=O)[O-])n1C [1,2-Dimethyl-5-nitroimidazole]	> 90 µM
Nc1ccc([N+](=O)[O-])cc1 [4-Nitroaniline]	> 90 µM
CCCCc1cc2c(=O)c(C(=O)OC)c[nH]c2cc1OCc1ccccc1 [Nequinate]	> 50 µM
Cc1c(Cl)cccc1Cl [2,6-Dichlorotoluene]	> 90 µM
N#Cc1sc2c(=O)c3ccccc3c(=O)c=2sc1C#N [Dithianon]	29.4 µM
C[C@]12O[C@H](C[C@]1(O)CO)n1c3ccccc3c3c4c(c5c6ccccc6n2c5c31)CNC4=O [Lestaurtinib]	0.226 µM

same assay, conditions: rat, gh3-tre-luc cells, AC50 (uM) modified / 1000, Tox21_110001=Tox21_110905; viability, 1 nM T3 present, 24 h

SMILES	CC50 at 24 h
C=C(C)[C@H]1CN[C@H](C(=O)O)[C@H]1CC(=O)O [Kainic acid]	> 50 µM

same assay, conditions: rat, gh3-tre-luc cells, AC50 (uM) modified / 1000, Tox21_110001=Tox21_112671; viability, 1 nM T3 present, 24 h

SMILES	CC50 at 24 h
C[C@]12CC[C@H](O)C[C@H]1CC[C@@H]1[C@@H]2CC[C@]2(C)[C@@H](c3ccc(=O)oc3)C[C@H]3O[C@]132 [Bufogenin]	> 50 µM

same assay, conditions: rat, gh3-tre-luc cells, AC50 (uM) modified / 1000, Tox21_110001=Tox21_200953; viability, 1 nM T3 present, 24 h

SMILES	CC50 at 24 h
O=[N+]([O-])c1cccc2c([N+](=O)[O-])cccc12 [1,5-Dinitronaphthalene]	> 90 µM

same assay, conditions: rat, gh3-tre-luc cells, AC50 (uM) modified / 1000, Tox21_110001=Tox21_201036; viability, 1 nM T3 present, 24 h

SMILES	CC50 at 24 h
OCCBr [2-Bromo-1-ethanol]	> 90 µM

same assay, conditions: rat, gh3-tre-luc cells, AC50 (uM) modified / 1000, Tox21_110001=Tox21_201682; viability, 1 nM T3 present, 24 h

SMILES	CC50 at 24 h
NC(=S)Nc1ccccc1 [1-Phenyl-2-thiourea]	> 90 µM

same assay, conditions: rat, gh3-tre-luc cells, AC50 (uM) modified / 1000, Tox21_110001=Tox21_201755; viability, 1 nM T3 present, 24 h

SMILES	CC50 at 24 h
Cc1cccc(N=Nc2ccc(N(C)C)cc2)c1 [3'-Methyl-4-dimethylaminoazobenzene]	72.8 µM

same assay, conditions: rat, gh3-tre-luc cells, AC50 (uM) modified / 1000, Tox21_110001=Tox21_202356; viability, 1 nM T3 present, 24 h

SMILES	CC50 at 24 h
O=NN1CCCC1 [N-Nitrosopyrrolidine]	> 100 µM

same assay, conditions: rat, gh3-tre-luc cells, AC50 (uM) modified / 1000, Tox21_110001=Tox21_202449; viability, 1 nM T3 present, 24 h

SMILES	CC50 at 24 h
Clc1nc(Cl)nc(Cl)n1 [2,4,6-Trichloro-s-triazine]	> 90 µM

same assay, conditions: rat, gh3-tre-luc cells, AC50 (uM) modified / 1000, Tox21_110001=Tox21_300592; viability, 1 nM T3 present, 24 h

SMILES	CC50 at 24 h
ClC1(Cl)C2(Cl)C3(Cl)C4(Cl)C(Cl)(Cl)C5(Cl)C3(Cl)C1(Cl)C5(Cl)C24Cl (stereo not drawn) [Mirex]	> 90 µM

same assay, conditions: rat, gh3-tre-luc cells, AC50 (uM) modified / 1000, Tox21_110001=Tox21_302913; viability, 1 nM T3 present, 24 h

SMILES	CC50 at 24 h
O=NN1CCCC1 [N-Nitrosopyrrolidine]	> 90 µM

same assay, conditions: rat, gh3-tre-luc cells, AC50 (uM) modified / 1000, Tox21_110001=Tox21_303022; viability, 1 nM T3 present, 24 h

SMILES	CC50 at 24 h
Cc1cccc(N=Nc2ccc(N(C)C)cc2)c1 [3'-Methyl-4-dimethylaminoazobenzene]	> 90 µM
